102 compounds from PubChem BioAssay AID1996 can be followed below.

≈ marks a conversion by molar mass, not a printed value. Where only a bound is given, the exact number is not on record here.

For this data set the following is noted: buffer; pH 7.4; 200.0 µM.
A word on the kinetic solubility: it is the concentration staying in solution when a stock, usually in DMSO, is diluted into the medium. Compound `O=C(Nc1ccc(F)cc1)C1CCN(C(=O)c2ccc(F)cc2)CC1` displayed a solubility (kinetic) of over 51.7 µg/mL.
In the case of `Cc1ccc(S(=O)(=O)N(C)CC(=O)N2CCCCCC2)cc1` it was 48.4 µg/mL (≈ 149 µM); in that of `CCn1c(=O)c2sccc2n(Cc2ccc(C)cc2)c1=O`, 0.4 µg/mL (≈ 1.33 µM).
`N#Cc1ccc(S(=O)(=O)NC2CCN(Cc3ccccc3)CC2)cc1` showed a kinetic solubility of 42.5 µg/mL (≈ 120 µM).
In the case of `Cc1cnc(NC(=O)/C=C/c2ccc(Br)o2)s1` it was 0.8 µg/mL (≈ 2.55 µM).
As for `O=c1c(Cc2c(F)cccc2Cl)c(O)ccn1C1CCCCCC1`, the kinetic solubility was under 0.7 µg/mL.
`O=[N+]([O-])c1cccc(-c2cc3ccccc3[nH]2)c1` showed a kinetic solubility of under 0.3 µg/mL.
Compound `CCN1CCN(C(=O)C(C)Sc2nc3nc(C)cc(C)n3n2)CC1` (configuration not stated) gave a kinetic solubility of over 52.3 µg/mL.
In turn, `O=C(NNC(=S)NCCCN1CCOCC1)c1ccncc1` returned a kinetic solubility of over 48.5 µg/mL.
The compound `O=C(CSc1nc2ccccc2c(=O)n1CCCN1CCOCC1)Nc1ccc(F)c(Cl)c1` yielded a solubility (kinetic) of 18.5 µg/mL (≈ 37.7 µM).
Compound `COc1ccc(C(=O)N[C@H](C(=O)Nc2sccc2C(N)=O)C(C)C)cc1` came in with a solubility (kinetic) of over 56.3 µg/mL.
In turn, `O=C(O)CC(Cc1ccc(Cl)cc1)C(=O)Nc1cc(Cl)ccc1Cl` (configuration not stated) returned a solubility (kinetic) of 42.1 µg/mL (≈ 109 µM).
For the compound `COc1ccc2[nH]c(C(=O)NCCN3CCCCC3)cc2c1`, the kinetic solubility was 39.7 µg/mL (≈ 132 µM).
`CSc1ccc(Cl)c(C(=O)Nc2cc(S(=O)(=O)N3CCOCC3)ccc2N2CCOCC2)c1` registered a solubility (kinetic) of 3.4 µg/mL (≈ 6.64 µM).
Next, `O=C(O)Cc1ccc2c(c1)N(S(=O)(=O)c1cccs1)CC(C(=O)O)O2` (configuration not stated): over 57.5 µg/mL; `C=CCn1c(O)c(C=NC2CCN(Cc3ccccc3)CC2)c(=O)[nH]c1=O`: 54.1 µg/mL (≈ 147 µM).
Next, `C=C(C)Cn1c(N2CCCC2)nc2c1c(=O)n(C)c(=O)n2C`: 33.6 µg/mL (≈ 111 µM); `CC(C)(C)c1ccc(/C=C/C(=O)NCCCN2CCOCC2)cc1`: 32.3 µg/mL (≈ 97.7 µM); `COCCSc1ccccc1C(=O)NCc1cccnc1`: over 45.4 µg/mL.
As for `Cc1ccc(NC(=O)Nc2ccc(Cl)c(Cl)c2)nc1`, the solubility (kinetic) was under 0.2 µg/mL.
With `CCc1ccc(N2C(=O)CN(Cc3sccc3C)C2=S)cc1`, the kinetic solubility was under 0.4 µg/mL.
Next, `CC(C)c1ccc(OC(=O)c2ccc3c(=O)n4c(nc3c2)CCC4)cc1`: 8.3 µg/mL (≈ 23.8 µM); `CC(=O)c1ccc2noc(-c3ccccc3)c2c1`: 31.8 µg/mL (≈ 134 µM); `O=S(=O)(c1ccc(Cl)cc1)N1CCN2CCCC2C1` (configuration not stated): over 45.1 µg/mL.
Consider `O=C(Nc1ccc(F)cc1)Nc1cccnc1Cl`, for which the solubility (kinetic) was 13.8 µg/mL (≈ 51.9 µM).
As to `COc1ccc2[nH]c3c(NCCCOC(C)C)ncnc3c2c1`, the kinetic solubility is 44.7 µg/mL (≈ 142 µM).
In the case of `CCc1nc(CN2CCN(c3cc(C(F)(F)F)ccn3)CC2)c(C)[nH]1` it was 47.6 µg/mL (≈ 135 µM).
In turn, `COc1cccc(CNc2ccc([N+](=O)[O-])cc2C)c1` had a solubility (kinetic) of 1.3 µg/mL (≈ 4.77 µM).
In the case of `Nc1cc(Cl)ccc1C(=O)OCC(=O)NCc1cccs1` it was 7.7 µg/mL (≈ 23.7 µM); in that of `Cc1ccc(C(=O)CCC(=O)Nc2cccc(C)c2)cc1`, under 0.6 µg/mL.
In the case of `COc1cccc(OC)c1/C=C/C(=O)NC1CCCCC1` it was 5.8 µg/mL (≈ 20 µM); in that of `O=C(NCc1cccnc1)C(=O)C1C(=O)Nc2ccccc21` (configuration not stated), 42.5 µg/mL (≈ 144 µM); in that of `COCc1nc2ccccc2n1CCc1ccccc1`, over 40 µg/mL.
In the case of `CC(=O)c1ccc(OC(C)C(=O)Nc2cccc(S(=O)(=O)NCc3ccco3)c2)cc1` (configuration not stated) it was over 66.4 µg/mL.
The compound `Cc1ccccc1Oc1ncnc(N)c1[N+](=O)[O-]` showed a solubility (kinetic) of 9.8 µg/mL (≈ 39.8 µM).
As to `Cc1ccc(C(=O)N(C)CC(=O)Nc2ccc(F)c(F)c2F)o1`, the kinetic solubility was over 48.9 µg/mL.
As to `CCN1C(=O)c2cccc3c(N)ccc1c23`, the kinetic solubility was over 31.8 µg/mL.
`O=C(Nc1ccc(F)cc1)c1nc[nH]c1C(=O)O`: the solubility (kinetic) is over 37.4 µg/mL.
In the case of `Cc1ccc(NC(=S)NC(=O)C2CCC2)cc1C` it was 3.3 µg/mL (≈ 12.6 µM).
Next, `COc1ccc(NC(=O)Nc2cccs2)cn1`: over 37.4 µg/mL; `COC(=O)[C@H](CC(C)C)NC(=O)N1CCCCC1`: over 38.5 µg/mL; `O=C(O)CCCCCNC(=O)/C=C/c1ccco1`: 26.2 µg/mL (≈ 104 µM).
`CNC(=O)COC(=O)c1ccccc1NC(=O)c1ccco1` showed a solubility (kinetic) of over 45.3 µg/mL.
In turn, `COc1ccccc1CCn1c(N)cc(=O)[nH]c1=O` showed a kinetic solubility of over 39.2 µg/mL.
As to `COc1ccc(C(=O)Nc2cc(S(=O)(=O)N3CCCC3)ccc2Cl)cc1`, the kinetic solubility is 9.2 µg/mL (≈ 23.3 µM).
Take `COC(=O)/C=C1/SC(=NC(=O)c2ccc(OC)cc2)NC1=O`: the solubility (kinetic) was 9.2 µg/mL (≈ 28.7 µM).
Regarding `C[N+](C)(C)c1ccccc1.[I-]`, the solubility (kinetic) was over 39.5 µg/mL.
Next, `O=C(COC(=O)c1cccnc1Cl)c1ccc(F)cc1`: 42.7 µg/mL (≈ 145 µM); `CCc1noc(C)c1C(=O)OCC(=O)N1CCc2ccccc21`: 4.6 µg/mL (≈ 14.6 µM); `C#CC[N+](C)(C)CC#Cc1ccc(C)cc1.[Br-]`: over 43.8 µg/mL.
With `O=C(Nc1cccc2ncccc12)c1cc([N+](=O)[O-])ccc1Cl`, the solubility (kinetic) was determined as 3.2 µg/mL (≈ 9.76 µM).
With `COC(=O)c1ccc(CNC(=O)CSc2nc3ccccc3[nH]2)cc1`, the kinetic solubility turned out to be 11.6 µg/mL (≈ 32.6 µM).
Next, `CC1Oc2ccccc2N(CC(=O)Nc2ccc(F)cc2)C1=O` (configuration not stated): 12.6 µg/mL (≈ 40.1 µM); `N#C/C(=C\c1ccccc1)C(=O)N1CCC(C(N)=O)CC1`: 40.1 µg/mL (≈ 142 µM); `CCOc1ccc(C(=O)NCC(=O)OCC(=O)N2CCCC2)cc1`: over 50.2 µg/mL.
In the case of `COc1ccc(C2(C)NC(=O)N(CC(=O)NCC(=O)Nc3ccc(F)c(F)c3F)C2=O)cc1OC` (configuration not stated) it was 0.5 µg/mL (≈ 1.01 µM); in that of `Clc1cnc2nc(SC/C=C/c3ccccc3)[nH]c2c1`, under 0.2 µg/mL; in that of `Cn1c(-c2ccccc2)cnc1NCc1cc(Cl)ccc1O`, 1.2 µg/mL (≈ 3.82 µM).
In turn, `CCCCCN1C=CC=C/C1=C\C=C(C#N)C#N` came in with a kinetic solubility of 6.9 µg/mL (≈ 28.8 µM).
Regarding `Cn1c(=O)c([N+](=O)[O-])c(NCCCn2ccnc2)c2ccccc21`, the solubility (kinetic) is over 49.1 µg/mL.
As for `C/C(CC(=O)NC(C)c1ccccc1)=N\NC(N)=S` (configuration not stated), the solubility (kinetic) is over 41.8 µg/mL.
In the case of `CCCCC(=O)Nc1ccccc1C(C)C` it was 23.3 µg/mL (≈ 106 µM); in that of `CCOC(=O)C1CCN(S(=O)(=O)c2ccc(-c3ccccn3)s2)CC1`, 3.9 µg/mL (≈ 10.2 µM).
With `O=C(N/N=C\c1cccnc1)c1ccc(Cl)cc1Cl`, the kinetic solubility was over 44.1 µg/mL.
Regarding `CC(=NCCN1CCCCC1)c1c(O)n(-c2ccccc2)c(=O)[nH]c1=O`, the solubility (kinetic) was over 53.5 µg/mL.
`Cc1ccccc1NC(=S)c1ccc2ccccc2n1` displayed a kinetic solubility of under 0.3 µg/mL.
In the case of `O=C(O)c1cccc(NC(=S)NCc2ccccc2)c1` it was over 43 µg/mL; in that of `O=c1onc(-c2c(F)cccc2F)n1-c1ccccc1Cl`, 1 µg/mL (≈ 3.24 µM).
In the case of `CCc1nc(SCC(=O)O)c2c3c(sc2n1)COC(C)(C)C3` it was over 50.8 µg/mL; in that of `Cc1cc2ccccn2c1C(=O)c1ccc(F)cc1`, 0.9 µg/mL (≈ 3.55 µM).
In the case of `O=C(Cc1ccccc1)Nc1ccc2c(c1)OC1(CCCC1)O2`, the solubility (kinetic) was found to be 16.4 µg/mL (≈ 53 µM).
In turn, `Cc1ccc(S(=O)(=O)N2CCCCC2)c2nsnc12` registered a kinetic solubility of 31.9 µg/mL (≈ 107 µM).
With `Cc1cn(S(=O)(=O)c2ccc(Cl)cc2)c(C)n1`, the kinetic solubility was determined as 8.6 µg/mL (≈ 31.8 µM).
For the compound `COC(=O)[C@H](C)NC(=O)N1CCC(Cc2ccccc2)CC1`, the kinetic solubility is over 45.7 µg/mL.
For `CCOC(=O)C1CCN(C/C=C/c2ccccc2)CC1`, the kinetic solubility turned out to be 27.2 µg/mL (≈ 99.5 µM).
In the case of `O=C(Cc1ccc([N+](=O)[O-])cc1)Nc1ccc2c(c1)CCC2` it was 0.6 µg/mL (≈ 2.02 µM); in that of `COc1ccccc1N(C)S(=O)(=O)c1ccc(C(=O)O)cc1`, over 48.2 µg/mL.
`CCOc1ccc(NC(=O)CCS(=O)(=O)c2ccc(C)cc2)cc1` had a kinetic solubility of over 52.1 µg/mL.
For the compound `CCOC(=O)C1=CCN(Cc2ccccc2)CC1.Cl`, the kinetic solubility amounted to 37.8 µg/mL.
Compound `NC(=O)COC(=O)c1cc(-c2ccco2)nc2ccccc12` came in with a kinetic solubility of 39.9 µg/mL (≈ 135 µM).
In turn, `CS(=O)(=O)c1ccccc1C(=O)Nc1ccc2sccc2c1` returned a solubility (kinetic) of 33.8 µg/mL (≈ 102 µM).
`Cc1ccc(NS(=O)(=O)c2ccc3[nH]c(=O)[nH]c3c2)c(C)c1` registered a kinetic solubility of 5 µg/mL (≈ 15.8 µM).
As for `O=C(COC(=O)/C=C/c1ccc(Br)o1)Nc1cccc(S(=O)(=O)N2CCOCC2)c1`, the kinetic solubility is 5.9 µg/mL (≈ 11.8 µM).
`Cc1c(C(=O)N(C)C(C)c2ccncn2)oc2c(F)cccc12` (configuration not stated) returned a solubility (kinetic) of over 47 µg/mL.
On to `Cc1cc(C)c2cc(C(=O)N(C)C3CCN(C)CC3)[nH]c2c1`, for which the solubility (kinetic) was 21 µg/mL (≈ 70.1 µM).
Regarding `CN(CC#CC(O)(c1ccccc1)c1ccccc1)C(C)(C)C`, the solubility (kinetic) is over 46.1 µg/mL.
`CC(C)(CC(=O)O)CC(=O)Nc1ccc(Oc2ccc(C(C)(C)C)cc2)nc1` had a kinetic solubility of over 57.7 µg/mL.
As to `CSCCC(NC(=O)COc1ccccc1)C(=O)NCc1cccs1` (configuration not stated), the kinetic solubility is over 56.8 µg/mL.
`O=C(NCCCn1ccnc1)c1ccc(Cl)c(Cl)c1`: the solubility (kinetic) was over 44.7 µg/mL.
Regarding `COc1ccc(S(=O)(=O)n2cnc3ccccc32)c(C)c1`, the kinetic solubility was 17 µg/mL (≈ 56.2 µM).
Next, `CC1(C)C2CCC1(C)C(OCCNCCOC(=O)Nc1ccccc1)C2` (configuration not stated): 10.2 µg/mL (≈ 28.3 µM); `Nc1ncc([N+](=O)[O-])c(N2CCCCCC2)n1`: over 35.6 µg/mL; `CCc1ccccc1NC(=O)CSc1nc(C)c(C)o1`: over 43.6 µg/mL.
Turning to `Cc1ccsc1C(=O)OCC(=O)NC1CCS(=O)(=O)C1` (configuration not stated), the kinetic solubility is over 47.6 µg/mL.
Consider `CN(C)S(=O)(=O)c1cccc(NC(=O)COc2ccc(S(=O)(=O)N3CCOCC3)cc2Cl)c1`, for which the kinetic solubility was determined as 5.4 µg/mL (≈ 10.4 µM).
Compound `O=C(/C=C/c1cccc(F)c1)OCC(=O)N1CCCC1` yielded a solubility (kinetic) of over 41.6 µg/mL.
Take `CS(=O)(=O)Nc1ccc(S(=O)(=O)N2CCCC2)cc1`: the kinetic solubility is over 45.7 µg/mL.
In turn, `O=S(=O)(/N=C(\[O-])C[n+]1ccccc1)c1ccc(Cl)cc1` gave a solubility (kinetic) of over 46.6 µg/mL.
In the case of `COc1ccc(NC(=S)NC(=O)c2cccnc2)cc1` it was 15.5 µg/mL (≈ 53.9 µM).
As for `Cc1cccc(C(=O)OCC(=O)NC(=O)Cc2ccccc2)c1O`, the kinetic solubility stood at 5.8 µg/mL (≈ 17.7 µM).
`COc1ccc(Nc2ccc([N+](=O)[O-])cc2[N+](=O)[O-])cc1` yielded a kinetic solubility of 1.5 µg/mL (≈ 5.19 µM).
As to `CC(C)(CC(=O)O)CC(=O)N1CCN(c2nc3cc(Cl)ccc3s2)CC1`, the solubility (kinetic) is over 59.4 µg/mL.
